{"source": "patent US11357774B2", "about": "“Use of a quinoline sulfonyl compound for treatment of inflammation, inflammatory disorders, autoimmune disorders and malaria” (priority 2019, dated 2022)", "key": {"[1]": {"tested_on": "IL-6 secretion in HFLS-RA cells", "assay": "IL-6 secretion in stimulated HFLS-RA cells (ELISA)", "type": "cell-based, human", "conditions": "6 hours", "protocol": "The mean±SEM (n=3) values were determined by a Dunnett's test.\nThe values presented are the mean±SEM (n=2).\nThe enzyme-linked immunosorbent assay (ELISA) is a quantitative measurement based on sandwich-based enzyme linking, using a protein-specific capture antibody to determine the levels of single or multiple chemokines and cytokines.\nThis finding was extended to human cells relevant to autoimmune diseases. Human fibroblast-like synoviocytes (HFLS) are present in the synovial fluid of joint capsules and produce harmful molecules that contribute to joint destruction and the exacerbation of the disease in rheumatoid arthritis patients. […] The cells were then stimulated with IL-1β (FIG. 16) or LPS (FIG. 17), in the absence (control; IL-1β only) or presence of VR23 or HCQ. HCQ was included for comparison because it is often used to treat rheumatoid arthritis. […] For “VR23 only” samples, 5 μM VR23 was used. Fifty thousand HFLS cells per mL were used for the experiment. Cytokine levels in cell culture supernatants were determined by a single-analyte ELISA. […] Fifty thousand HFLS cells per mL were used for the experiment. The cytokine secretion was measured in cell culture supernatants by a single-analyte ELISA."}, "[2]": {"tested_on": "SW-982 cells", "assay": "CCK-8 cell viability, SW-982 cells", "type": "cell-based", "conditions": "SW-982, 6 hours with IL-1β 1 ng/mL; VR23 5 μM, HCQ 30 μM", "protocol": "(§1) Dunnett's test was performed to assess if there are significant differences in cell viability compared to the non-treatment control group. The values presented are mean±SEM (n=3).\n(§2) The CCK-8 assay was used to count viable cells under the various treatment conditions. Briefly, cells were cultured in 11 columns of a 96-well clustered plate, with 5,000 cells in 100 μL of culture medium per well, excluding one column for a media-only control. The plate was incubated overnight at 37° C. in the humidified conditions, followed by treatment with test compounds diluted in the culture medium (10 μL). Each column was treated with a different condition so that each treatment could have 8 repeats. […] The absorbance was measured using an automatic plate reader (Synergy H4 Hybrid Multi-Mode Microplate Reader, BioTek, Montreal, Canada) at 450 nm wavelength. The cell viability of each treatment sample was determined by using the following equation (%)=(Abstrtmt-Absmedia)/(AbsuT-Absmedia)*100, where Abstrtmt is the absorbance value of cells with the various treatment conditions; Absmedia is the absorbance of the well containing media only; AbsuT is the absorbance of the wells with untreated cells. […]"}, "[3]": {"tested_on": "THP-1 cells", "assay": "CCK-8 cell viability, THP-1 cells", "type": "cell-based", "conditions": "THP-1, 6 hours with LPS 5 μg/mL or TNF-α 10 ng/mL; VR23 3 μM, BTZ 6 nM, CFZ 1 nM, DEX 2 μM", "protocol": "as §1, §2"}, "[4]": {"tested_on": "mouse lung tissues with ALI caused by LPS", "assay": "Histopathological analysis of lung tissues of mice with LPS-induced ALI", "type": "in vivo", "conditions": "LPS 0.4 mg/kg, 24 hours, VR23 30 mg/kg, DEX 4 mg/kg", "protocol": "Six to eight week old female BALB/c mice strain 028 (Charles River Laboratories, QC, Canada) were fed regularly with laboratory chow and water upon arrival at the Laurentian University Animal Care Facility (Sudbury, ON, Canada). To determine a useful dose of LPS, three mice per group were treated for 24 hours with the following three different conditions: (i) no LPS, (ii) 0.25 mg of LPS per kg of body weight, and (iii) 0.50 mg of LPS per kg of body weight. The different concentrations of LPS were administered intranasally to the three BALB/c mice per concentration. After the animals were sacrificed, the bronchoalveolar lavage fluid (BALF) of each mouse was collected and analyzed for LPS-induced inflammatory responses. […] Experimental design involving the use of VR23 was based on a previous acute lung injury (ALI) instillation by Wei and Huang^26. Briefly, mice were divided into 5 groups, with 3-5 mice per group: no lung injury (i.e., no treat), sham treated, LPS-only, LPS+DEX, and LPS+VR23. […] Bronchoalveolar lavage fluid was collected and the number of cells infiltrated into the bronchoalveolar fluid were counted (FIG. 2). […]\nAt 24-hour post-induction of lung injury with LPS, lung tissues were embedded in the paraffin block, followed by slicing them into 10 μm sections using a microtome. […] For microscopy, at least 10 fields were analyzed for each sample. […]"}}}
{"smiles": "O=[N+]([O-])c1ccc(S(=O)(=O)N2CCN(c3ccnc4cc(Cl)ccc34)CC2)c([N+](=O)[O-])c1", "note": "[VR23, 7-chloro-4-(4-(2,4-dinitrophenylsulfonyl)piperazin-1-yl)quinoline]", "values": [{"measurement": "IL-6 secretion, dose dependence", "setting": "[1]; HFLS-RA, IL-1β 10 ng/mL, VR23 2.5-10 μM, HCQ 15 or 30 μM", "result": "decreases in a dose dependent manner"}, {"measurement": "secretion of IL-6", "setting": "[1]; HFLS-RA, LPS 100 ng/mL, 5 or 10 μM", "result": "decreased substantially"}, {"measurement": "level of IL-6 secretion, HFLS-RA versus HFLS-N", "setting": "[1]; IL-1β 10 ng/mL, VR23 5 μM", "result": "reduces the level of IL-6 secretion more effectively on HFLS-RA than HFLS-N"}, {"measurement": "IL-6 reduction, 5 μM VR23 versus 30 μM HCQ", "setting": "[1]; synovial cells from rheumatoid arthritis patients, IL-1β or LPS", "result": "significantly more effective"}, {"measurement": "cell viability (CCK-8)", "setting": "[2]", "result": "did not significantly differ from the untreated cells"}, {"measurement": "cell viability (CCK-8)", "setting": "[3]", "result": "did not significantly differ from the untreated cells"}, {"measurement": "alveolar inflammation caused by LPS (H & E histopathology)", "setting": "[4]", "result": "largely prevented"}]}
